Measurements published in PMC10376326, “Novel Acylselenourea Derivatives: Dual Molecules with Anticancer and Radical Scavenging Activity” (Antioxidants, 2023).

Legend:
[1] = test system: HTB-54 (lung) cancer cell line; assay: MTT cell viability assay, HTB-54; format: cell-based, human; conditions: for activity at 10 µM / activity at 50 µM / IC50: Homo sapiens, HTB-54, 48 h; for activity at 10 µM: read-out: Cell growth %, HTB-54, 10 µM, 48 h, MTT; for activity at 50 µM: read-out: Cell growth %, HTB-54, 50 µM, 48 h, MTT; for IC50: read-out: IC50 HTB-54, Lung, MTT, 48 h; for SI: IC50 (BEAS-2B)/IC50 (HTB-54)
Procedure: (§1) Cell lines were purchased from the American Type Culture Collection (ATCC). Cell lines MDA-MB-231, HTB-54, DU-145, and BEAS-2B were cultured in RPMI 1640 medium (Gibco, Thermo Fisher Scientific, Gaithersburg, MD, USA) supplemented with 10% fetal bovine serum (FBS; Gibco), 100 units/mL penicillin, and […] streptomycin (Gibco). HT-29 cell line was grown in McCoy’s 5A (Gibco), 10% FBS, 100 units/mL penicillin, and 100 μg/mL streptomycin. Cells were maintained at 37 °C and 5% CO2. The culture medium was changed every three days.
(§2) The cell viability of each compound was measured by MTT colorimetric assay. Each compound was dissolved in DMSO at a concentration of 0.01 M. Each compound was tested at two different concentrations (10 and 50 µM) in MDA-MB-231 (breast), HTB-54 (lung), DU-145 (prostate), and HT-29 (colon) human cancer cell lines. Serial dilutions were prepared with supplemented culture medium. […] IC50 and selectivity indexes (SI) were determined.
(§3) Briefly, 1 × 10^4 tumor cells per well were grown in 96-well plates for 24 h. Then, these cells were incubated for 48 h with either DMSO (control) or a different concentration of each of the tested compounds. The cell viability was determined by adding 20 μL of MTT two hours and a half before the termination point. After this time, the culture medium was removed. The resulting formazan crystals were dissolved in 50 μL of DMSO, and the absorbance was measured at 570 nm. Results are expressed as % cell growth. The data were obtained from at least three independent experiments performed in quadruplicate.

[2] = DPPH radical scavenging assay; format: biochemical; conditions: for DPPH Inhibitory%: acylselenourea analogs
Procedure: Different methods are available to quantify the antioxidant capacity of natural or novel molecules. Notable among these are the ABTS^•+ and DPPH^• methods, which measure the quenching efficiency in vitro for known concentrations of preformed radicals. In this work, the DPPH^• colorimetric assay was carried out. Measurements were recorded on a BioTeck PowerWave XS spectrophotometer (BioTeck Instruments, Winooski, VT, USA) and data were collected using KCJunior v.1.41. software (BioTeck Instruments, Winooski, VT, USA). Compounds with potent activity were selected to further determine their protective effect against ROS-induced cell death caused by H2O2.
DPPH colorimetric assay was performed to determine the in vitro radical scavenging activity of the acylselenourea derivatives. DPPH assay was performed as described by Svinyarov. For each acylselenourea, a stock solution of 1 mg/mL in dimethyl sulfoxide (DMSO) was made, and these solutions were used to prepare the different concentrations employed in the assay. The compounds were tested at two different concentrations (0.003 and 0.03 mg/mL). Intermediate solutions were prepared in methanol and a volume of 100 µL of each was added to each well of the plate. Then, 100 µL of DPPH^• (previously prepared at a concentration of 0.04 mg/mL in methanol and preserved in the dark) was added to the previous methanolic acylselenourea solutions. The discoloration of the purple radical to the yellow reduced form was followed at 517 nm at different time points (0, 5, 15, 30, 60, 90, and 120 min). Ascorbic acid and trolox were used as positive controls. All measurements were carried out in triplicate. Results are expressed as the percentage of the radicals scavenged, calculated using the following formula: (1) % DPPH radical scavenging=Acontrol - Asample/Acontrol × 100 where Acontrol refers to the absorbance of the negative control and Asample refers to the absorbance of the tested compounds. Results are expressed as percentage of DPPH radical scavenging ± SD.

[3] = test system: non-malignant BEAS-2B lung cell line; assay: MTT cell viability assay, BEAS-2B; format: cell-based; conditions: Homo sapiens, normal lung, 48 h
Procedure: as §1, §2, §3

[4] = test system: MDA-MB-231, HT-29, HTB-54 and DU-145 cancer cell lines; assay: MTT cell viability assay, statements over the panel of cancer cell lines; format: cell-based, human; conditions: in at least three of the four cancer cell lines tested
Procedure: as §1, §2, §3

[5] = test system: HT-29 (colon) cancer cell line; assay: MTT cell viability assay, HT-29; format: cell-based; conditions: Homo sapiens, HT-29, 48 h, read-out: Cell growth %; for activity at 10 µM: HT-29, 10 µM; for activity at 50 µM: HT-29, 50 µM
Procedure: as §1, §2, §3

[6] = test system: DU-145 (prostate) cancer cell line; assay: MTT cell viability assay, DU-145; format: cell-based, human; conditions: Homo sapiens, DU-145, 48 h; for activity at 10 µM: read-out: Cell growth %, DU-145, 10 µM, 48 h, MTT; for activity at 50 µM: read-out: Cell growth %, DU-145, 50 µM, 48 h, MTT
Procedure: as §1, §2, §3

DU-145 cells = assay: Protective effects against H2O2-induced oxidative stress in DU-145 cells (MTT); format: cell-based, human; conditions: increase-fold of cell survival
Procedure: Cells were treated with the selected compounds and then oxidative damage to DU-145 cells was induced using different concentrations of H2O2 (200, 250 and 300 µM), and cell viability was assessed by the MTT method. Briefly, 2.5 × 10^4 DU-145 cells per well were added in 96-well plates. After 24 h of incubation, DMSO, 1.I, 2.I, 5.I, 7.II, 10.II, and ascorbic acid were added to each well at two different concentrations (0.0015 mg/mL and 0.0003 mg/mL) and incubated for 1 h. After that, H2O2 was added at the concentrations of 200, 250, and 300 µM, and the cells were incubated for 12 h to induce cell damage. MTT assay was used to measure cell viability. For each treatment, the mean cell viability was calculated from three independent experiments. The DMSO-treated controls were assigned with a cell viability value of 100% (Vcontrol). The results are expressed as a cell growth inhibition % caused by H2O2 and the increased fold of cell survival, as follows: • Cells without compounds, only treated with H2O2: (2) % Cell growth inhibition=Acontrol - Asample/Acontrol × 100
• Cells treated with compounds and H2O2:
(3) % Cell growth inhibition=Asample (compound) - Asample (compound+H2O2)/Acontrol × 100
(4) Increase-fold of cell survival=% cell growth inhibition (H2O2)/% cell growth inhibition (compound+ H2O2)
The standard error of the mean (SEM) was calculated in at least three independent experiments performed in quadruplicates.

[7] = test system: MDA-MB-231 (breast) cancer cell line; assay: MTT cell viability assay, MDA-MB-231; format: cell-based, human; conditions: Homo sapiens, MDA-MB-231, 48 h; for activity at 10 µM: read-out: Cell growth %, MDA-MB-231, 10 µM, 48 h, MTT; for activity at 50 µM: read-out: Cell growth %, MDA-MB-231, 50 µM, 48 h, MTT
Procedure: as §1, §2, §3

[8] = compound 0.0003 mg/mL, 200 µM H2O2, DU-145
[9] = compound 0.0003 mg/mL, 250 µM H2O2, DU-145
[10] = compound 0.0003 mg/mL, 300 µM H2O2, DU-145
[11] = compound 0.0015 mg/mL, 200 µM H2O2, DU-145
[12] = compound 0.0015 mg/mL, 250 µM H2O2, DU-145
[13] = compound 0.0015 mg/mL, 300 µM H2O2, DU-145

| Compound | activity at 10 µM [1] [%] | activity at 50 µM [1] [%] | SI [1] | inhibition ([2]; 0.003 mg/mL, 0 min) [%] | inhibition ([2]; 0.003 mg/mL, 5 min) [%] | inhibition ([2]; 0.003 mg/mL, 15 min) [%] | inhibition ([2]; 0.003 mg/mL, 30 min) [%] | inhibition ([2]; 0.003 mg/mL, 60 min) [%] | inhibition ([2]; 0.003 mg/mL, 90 min) [%] | inhibition ([2]; 0.003 mg/mL, 120 min) [%] | inhibition ([2]; 0.03 mg/mL, 0 min) [%] | inhibition ([2]; 0.03 mg/mL, 5 min) [%] | inhibition ([2]; 0.03 mg/mL, 15 min) [%] | IC50 [3] [µM] | activity at 10 µM [5] [%] | activity at 50 µM [5] [%] | activity at 10 µM [6] [%] | activity at 50 µM [6] [%] | activity at 10 µM [7] [%] | activity at 50 µM [7] [%] | other results |
| --- | --- | --- | --- | --- | --- | --- | --- | --- | --- | --- | --- | --- | --- | --- | --- | --- | --- | --- | --- | --- | --- |
| C=CCNC(=[Se])NC(=O)c1cccnc1 [Compound 7.II, N-(allylcarbamoselenoyl)nicotinamide] | 21.4 ± 8.2 | 10.2 ± 5.8 | 0.5 | 3.6 ± 2.3 | 12 ± 2.2 | 16.8 ± 1.3 | 18.9 ± 1.3 | 20.3 ± 1.2 | 20.7 ± 1.3 | 20.7 ± 1.3 | 56.3 ± 6.2 | 90 ± 1.3 | 95.7 ± 0.4 | 6.3 ± 1.5 | 110 ± 19.4 | 19 ± 3.6 | 50.6 ± 2.4 | 8.95 ± 4.9 | 33.9 ± 6.7 | 10.5 ± 7 | IC50 [1]: 12 ± 2.7 µM; time to reach the highest DPPH inhibition ([2]; 0.03 mg/mL): 5 min; DPPH Inhibitory% ([2]; 0.03 mg/mL, 90 min): 96.2 ± 0.2%; cell growth [4]: below 55%; Increase-fold (DU-145 cells; [8]): 2.3 ± 1.2; Increase-fold (DU-145 cells; [9]): 1.6 ± 0.2; Increase-fold (DU-145 cells; [10]): 1.8 ± 0.4; Increase-fold (DU-145 cells; [11]): 1.5 ± 0.2; Increase-fold (DU-145 cells; [12]): 1.2 ± 0.3; Increase-fold (DU-145 cells; [13]): 1.4 ± 0.3 |
| CCCNC(=[Se])NC(=O)c1cccs1 [Compound 2.I, N-(propylcarbamoselenoyl)thiophene-2-carboxamide] | 92.3 ± 6.2 | 71.8 ± 4.4 | 0.6 | 0 | 4.9 ± 3.6 | 8.2 ± 3.3 | 11.4 ± 2.7 | 16 ± 3.4 | 17 ± 2.2 | 17.8 ± 2.2 | 2.5 ± 0.6 | 12.8 ± 1.8 | 36.2 ± 0.1 | 5.3 ± 0.6 | 48.4 ± 13.8 | 32.7 ± 6.9 | 54.5 ± 8.4 | 50.2 ± 2 | 32.8 ± 7.2 | 15.2 ± 8.8 | IC50 [1]: 8.6 ± 1.1 µM; time to reach the highest DPPH inhibition ([2]; 0.03 mg/mL): 60 min; inhibition ([2]; 0.03 mg/mL, 30 min): 59 ± 3%; inhibition ([2]; 0.03 mg/mL, 60 min): 90.7 ± 5.7%; inhibition ([2]; 0.03 mg/mL, 90 min): 95.5 ± 0.2%; inhibition ([2]; 0.03 mg/mL, 120 min): 95.5 ± 0.3%; cell growth [4]: below 55%; Increase-fold (DU-145 cells; [8]): 0.8 ± 0.2; Increase-fold (DU-145 cells; [9]): 0.9 ± 0.2; Increase-fold (DU-145 cells; [10]): 1.0 ± 0.3; Increase-fold (DU-145 cells; [11]): 2.9 ± 1.5; Increase-fold (DU-145 cells; [12]): 3.1 ± 1.3; Increase-fold (DU-145 cells; [13]): 2.9 ± 1.2 |
| C#CCNC(=[Se])NC(=O)c1cccs1 [Compound 2.III, N-(prop-2-in-1-ylcarbamoselenoyl)thiophene-2-carboxamide] | 76.8 ± 6.8 | 44.7 ± 3.5 | 2.3 | 2.4 ± 0.6 | 4.3 ± 0.4 | 5.4 ± 0.3 | 6.5 ± 0.5 | 7.1 ± 0.5 | 7.3 ± 0.6 | 7.3 ± 0.6 | 14.5 ± 2.3 | 12.8 ± 3 | 19.8 ± 2.8 | 26.6 ± 4 | 43.4 ± 4.2 | 20.6 ± 4 | 12.8 ± 2.8 | 14.3 ± 6.7 | 27.4 ± 5.4 | 9.48 ± 7.8 | IC50 [1]: 11.6 ± 1.6 µM; inhibition ([2]; 0.03 mg/mL, 30 min): 24.8 ± 2.6%; inhibition ([2]; 0.03 mg/mL, 60 min): 30.2 ± 2.9%; inhibition ([2]; 0.03 mg/mL, 120 min): 34.4 ± 2.9%; DPPH Inhibitory% ([2]; 0.03 mg/mL, 90 min): 33.0 ± 3.1% |
| C=CCNC(=[Se])NC(=O)c1cccc(C(=O)NC(=[Se])NCC=C)c1 [Compound 10.II, N^1,N^3-bis(allylcarbamoselenoyl)isophthalamide] | 52.6 ± 10.5 | 43.5 ± 17.6 | 0.7 | 0.9 ± 1.8 | 6.7 ± 1.7 | 11.5 ± 1.5 | 14.7 ± 1.2 | 17.7 ± 1.1 | 19 ± 0.9 | 19.7 ± 0.9 | 31.6 ± 4.1 | 69.1 ± 0.1 | 86.3 ± 0.9 | 29.9 ± 5 | 47.8 ± 8.7 | 46.4 ± 4.8 | 18.1 ± 2.7 | 18.8 ± 3.1 | 24.8 ± 6.1 | 21 ± 9.4 | time to reach the highest DPPH inhibition ([2]; 0.03 mg/mL): 60 min; inhibition ([2]; 0.03 mg/mL, 30 min): 94.4 ± 0.7%; inhibition ([2]; 0.03 mg/mL, 60 min): 96.1 ± 0.1%; inhibition ([2]; 0.03 mg/mL, 90 min): 96 ± 0.2%; inhibition ([2]; 0.03 mg/mL, 120 min): 96 ± 0.3%; cell growth [4]: below 55%; Increase-fold (DU-145 cells; [8]): 0.8 ± 0.4; Increase-fold (DU-145 cells; [9]): 1.0 ± 0.3; Increase-fold (DU-145 cells; [10]): 1.0 ± 0.2; Increase-fold (DU-145 cells; [11]): 1.0 ± 0.6; Increase-fold (DU-145 cells; [12]): 1.1 ± 0.2; Increase-fold (DU-145 cells; [13]): 1.1 ± 0.2 |
